Results: patent US9169254B2, “Spiroimidazolone derivative” (Chugai Seiyaku Kabushiki Kaisha, priority 2009, dated 2015)

target: T1, human PTH1 receptor (Homo sapiens, UniProt Q03431); test: In vitro cAMP signal activity in HKRK-B7 cells (LLC-PK1 cells overexpressing the human PTH1 receptor); type: cell-based; details: HKRK-B7 cells; compound at 1×10^−3 M; cAMP produced as percentage of that produced by hPTH(1-34) at 100 nM
T1 sequence (Q03431 27-593): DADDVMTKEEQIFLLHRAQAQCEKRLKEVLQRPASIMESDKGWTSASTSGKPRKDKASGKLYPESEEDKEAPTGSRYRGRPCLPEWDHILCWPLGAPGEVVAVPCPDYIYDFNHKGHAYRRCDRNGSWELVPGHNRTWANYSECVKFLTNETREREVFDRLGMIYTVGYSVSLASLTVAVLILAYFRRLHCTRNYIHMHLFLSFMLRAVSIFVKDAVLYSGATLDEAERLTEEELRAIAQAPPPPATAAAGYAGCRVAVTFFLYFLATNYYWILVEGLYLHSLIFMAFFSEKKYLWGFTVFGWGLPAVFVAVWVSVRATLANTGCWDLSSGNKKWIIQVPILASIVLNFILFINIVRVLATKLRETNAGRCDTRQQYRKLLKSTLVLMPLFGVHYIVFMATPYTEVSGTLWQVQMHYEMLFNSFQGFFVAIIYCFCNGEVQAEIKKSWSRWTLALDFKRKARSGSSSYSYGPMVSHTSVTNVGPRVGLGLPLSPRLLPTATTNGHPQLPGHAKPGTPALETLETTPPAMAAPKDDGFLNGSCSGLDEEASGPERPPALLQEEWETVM

Row | Compound | cAMP production activity (%)
1 | Cc1cc(OCCCN(C)C)ccc1CCS(=O)(=O)N1CCC2(CC1)N=C(c1cccc(OC(F)(F)F)c1)NC2=O [Compound 295, 8-{2-[4-(3-dimethylamino-propoxy)-2-methyl-phenyl]-ethanesulfonyl}-2-(3-trifluoromethoxy-phenyl)-1,3,8-triaza-spiro[4.5]dec-1-en-4-one] | 95
2 | Cc1cc(S(=O)(=O)NC2CCN(Cc3ccccc3)CC2)ccc1/C=C/S(=O)(=O)N1CCC2(CC1)N=C(c1cccc(OC(F)(F)F)c1)NC2=O [Compound 596, N-(1-Benzyl-piperidin-4-yl)-3-methyl-4-{(E)-2-[4-oxo-2-(3-trifluoromethoxy-phenyl)-1,3,8-triaza-spiro[4.5]dec-1-ene-8-sulfonyl]-vinyl}-benzenesulfonamide] | 40
3 | Cc1cccc(C2=NC3(CCN(S(=O)(=O)CCc4ccc(C(=O)N(C)C)cc4C)CC3)C(=O)N2)n1 [Compound 97, 3,N,N-trimethyl-4-{2-[2-(6-methyl-pyridin-2-yl)-4-oxo-1,3,8-triaza-spiro[4.5]dec-1-ene-8-sulfonyl]-ethyl}-benzamide] | 4.3
4 | Cc1cc(N(C)C(N)=O)cc(Cl)c1/C=C/S(=O)(=O)N1CCC2(CC1)N=C(C1CCC(C)CC1)NC2=O (centres unmarked) [Compound 695, 1-(3-Chloro-5-methyl-4-{(E)-2-[2-(4-methyl-cyclohexyl)-4-oxo-1,3,8-triaza-spiro[4.5]dec-1-ene-8-sulfonyl]-vinyl}-phenyl)-1-methyl-urea] | 78
5 | Cc1c(/C=C/S(=O)(=O)N2CCC3(CC2)N=C(c2cccc(OC(F)(F)F)c2)NC3=O)cccc1OCCC(O)CO (centres unmarked) [Compound 254, 8-{(E)-2-[3-(3,4-Dihydroxy-butoxy)-2-methyl-phenyl]-ethenesulfonyl}-2-(3-trifluoromethoxy-phenyl)-1,3,8-triaza-spiro[4.5]dec-1-en-4-one] | 97
6 | Cc1cc(N(C)C(N)=O)cc(C)c1CC[S@TB4](=O)(=O)N1CCC2(CC1)N=C(c1cccc(-c3cccc(-c4ccccc4)c3)c1)NC2=O [Compound 1155, 1-{3,5-dimethyl-4-[2-(4-oxo-2-[1,1′;3′,1″]terphenyl-3-yl-1,3,8-triaza-spiro[4.5]dec-1-ene-8-sulfonyl)-ethyl]-phenyl}-1-methyl-urea] | 83
7 | CC[C@H]1CC[C@H](C2=NC3(CCN(S(=O)(=O)CCc4ccc(N5C(=O)NC(=O)C5(C)C)cc4C)CC3)C(=O)N2)CC1 [Compound 887, 1-(4-{2-[2-(4-ethyl-cyclohexyl)-4-oxo-1,3,8-triaza-spiro[4.5]dec-1-ene-8-sulfonyl]-ethyl}-3-methyl-phenyl)-5,5-dimethyl-imidazolidine-2,4-dione] | 58
8 | Cc1cc(N2C(=O)CN(C)C2=O)ccc1CCS(=O)(=O)N1CCC2(CC1)N=C(C1CCC(C)CC1)NC2=O (centres unmarked) [Compound 862, 1-methyl-3-(3-methyl-4-{2-[2-(4-methyl-cyclohexyl)-4-oxo-1,3,8-triaza-spiro[4.5]dec-1-ene-8-sulfonyl]-ethyl}-phenyl)-imidazolidine-2,4-dione] | 55
9 | Cc1cc2ccc1CCS(=O)(=O)N1CCC3(CC1)N=C(NC3=O)c1cc(cc(C(F)(F)F)c1)OCC/C=C\CCCCCCN(C)C2=O [Compound 1417] | 49
10 | Cc1ccc(OCCC(O)CO)cc1/C=C/S(=O)(=O)N1CCC2(CC1)N=C(c1cccc(OC(F)(F)F)c1)NC2=O (centres unmarked) [Compound 255, 8-{(E)-2-[5-(3,4-dihydroxy-butoxy)-2-methyl-phenyl]-ethenesulfonyl}-2-(3-trifluoromethoxy-phenyl)-1,3,8-triaza-spiro[4.5]dec-1-en-4-one] | 64
11 | Cc1cc(N(C)C(N)=O)cc(C)c1/C=C/S(=O)(=O)N1CCC2(CC1)N=C(CCCCCCCCCCCC(=O)O)NC2=O [Compound 1131, 12-(8-{(E)-2-[2,6-Dimethyl-4-(1-methyl-ureido)-phenyl]-ethenesulfonyl}-4-oxo-1,3,8-triaza-spiro[4.5]dec-1-en-2-yl)-dodecanoic acid] | 96
12 | O=C1NC(c2ccc(Cl)cc2Cl)=NC12CCN(S(=O)(=O)c1cccc3cccnc13)CC2 [Compound 48, 2-(2,4-Dichloro-phenyl)-8-(quinoline-8-sulfonyl)-1,3,8-triaza-spiro[4.5]dec-1-en-4-one] | 25
13 | CCCCCCCCCC1=NC2(CCN(S(=O)(=O)CCc3ccc(N4C(=O)CNC4=O)cc3C(F)(F)F)CC2)C(=O)N1 [Compound 795, 3-{4-[2-(2-nonyl-4-oxo-1,3,8-triaza-spiro[4.5]dec-1-ene-8-sulfonyl)-ethyl]-3-trifluoromethyl-phenyl}-imidazolidine-2,4-dione] | 97
14 | Cc1cc(NC[C@H](O)CO)ccc1CCS(=O)(=O)N1CCC2(CC1)N=C(c1cccc(C(F)(F)F)c1)NC2=O [Compound 155, 8-{2-[4-((S)-2,3-dihydroxy-propylamino)-2-methyl-phenyl]-ethanesulfonyl}-2-(3-trifluoromethyl-phenyl)-1,3,8-triaza-spiro[4.5]dec-1-en-4-one] | 45

The remaining lines, values ahead:

Row | cAMP production activity (%) | Compound
15 | 22 | Cc1cc(C(=O)N(C)CCN(C)C)cc(C)c1/C=C/S(=O)(=O)N1CCC2(CC1)N=C(c1cccc(C(F)(F)F)c1)NC2=O [Compound 390, N-(2-dimethylamino-ethyl)-3,5,N-trimethyl-4-{(E)-2-[4-oxo-2-(3-trifluoromethyl-phenyl)-1,3,8-triaza-spiro[4.5]dec-1-ene-8-sulfonyl]-vinyl}-benzamide]
16 | 36 | Cc1cc(NCC2CNC(=O)O2)ccc1/C=C/S(=O)(=O)N1CCC2(CC1)N=C(C1CCCCC1)NC2=O (centres unmarked) [Compound 207, 2-cyclohexyl-8-((E)-2-{2-methyl-4-[(2-oxo-oxazolidin-5-ylmethyl)-amino]-phenyl}-ethenesulfonyl)-1,3,8-triaza-spiro[4.5]dec-1-en-4-one]
17 | 67 | Cc1cc(OC[C@H](O)CO)cc(C)c1CCS(=O)(=O)N1CCC2(CC1)N=C(C1CCCCC1)NC2=O [Compound 279, 2-cyclohexyl-8-{2-[4-((R)-2,3-dihydroxy-propoxy)-2,6-dimethyl-phenyl]-ethanesulfonyl}-1,3,8-triaza-spiro[4.5]dec-1-en-4-one]
18 | 96 | Cc1cc(C(=O)N2CCC(O)(CF)CC2)cc(C)c1/C=C/S(=O)(=O)N1CCC2(CC1)N=C(c1ccc(C(F)(F)C(F)(F)F)cc1)NC2=O [Compound 1244, 8-{(E)-2-[4-(4-fluoromethyl-4-hydroxy-piperidine-1-carbonyl)-2,6-dimethyl-phenyl]-ethenesulfonyl}-2-(4-pentafluoroethyl-phenyl)-1,3,8-triaza-spiro[4.5]dec-1-en-4-one]
19 | 28 | COc1ccc(CCCS(=O)(=O)N2CCC3(CC2)N=C(C2CCCCC2)NC3=O)cc1 [Compound 346, 2-Cyclohexyl-8-[3-(4-methoxy-phenyl)-propane-1-sulfonyl]-1,3,8-triaza-spiro[4.5]dec-1-en-4-one]
20 | 45 | CCC1CCC(C2=NC3(CCN(S(=O)(=O)CCc4c(C)cc(N(C)C(N)=O)cc4C)CC3)C(=O)N2)CC1 (centres unmarked) [Compound 732, 1-(4-{2-[2-(4-Ethyl-cyclohexyl)-4-oxo-1,3,8-triaza-spiro[4.5]dec-1-ene-8-sulfonyl]-ethyl}-3,5-dimethyl-phenyl)-1-methyl-urea]
21 | 47 | CC(=O)N(C)c1ccc(C)c(/C=C/S(=O)(=O)N2CCC3(CC2)N=C(c2cccc(OC(F)(F)F)c2)NC3=O)c1 [Compound 225, N-methyl-N-(4-methyl-3-{(E)-2-[4-oxo-2-(3-trifluoromethoxy-phenyl)-1,3,8-triaza-spiro[4.5]dec-1-ene-8-sulfonyl]-vinyl}-phenyl)-acetamide]
22 | 70 | CCOc1cc(NC(C)=O)ccc1/C=C/S(=O)(=O)N1CCC2(CC1)N=C(C1CCC(C)CC1)NC2=O (centres unmarked) [Compound 509, N-(3-ethoxy-4-{(E)-2-[2-(4-methyl-cyclohexyl)-4-oxo-1,3,8-triaza-spiro[4.5]dec-1-ene-8-sulfonyl]-vinyl}-phenyl)-acetamide]
23 | 16 | Cc1ccccc1C1=NC2(CCN(S(=O)(=O)c3cccc(Cl)c3)CC2)C(=O)N1 [Compound 11, 8-(3-chloro-benzenesulfonyl)-2-o-tolyl-1,3,8-triaza-spiro[4.5]dec-1-en-4-one]
24 | 57 | O=C1NC(c2cccc(C(F)(F)F)c2)=NC12CCN(S(=O)(=O)c1ccc(Cl)s1)CC2 [Compound 66, 8-(5-Chloro-thiophene-2-sulfonyl)-2-(3-trifluoromethyl-phenyl)-1,3,8-triaza-spiro[4.5]dec-1-en-4-one]
25 | 102 | CCCC[C@@H]1CCC[C@H](C2=NC3(CCN(S(=O)(=O)CCc4c(C)cc(N(C)C(N)=O)cc4C)CC3)C(=O)N2)C1 [Compound 1145, 1-(4-{2-[2-((1S,3R)-3-butyl-cyclohexyl)-4-oxo-1,3,8-triaza-spiro[4.5]dec-1-ene-8-sulfonyl]-ethyl}-3,5-dimethyl-phenyl)-1-methyl-urea]
26 | 98 | CCC[C@@H]1CCC[C@H](C2=NC3(CCN(S(=O)(=O)CCc4c(C)cc(N(C)C(N)=O)cc4C)CC3)C(=O)N2)C1 [Compound 1343, 1-(3,5-dimethyl-4-{2-[4-oxo-2-((1S,3R)-3-propyl-cyclohexyl)-1,3,8-triaza-spiro[4.5]dec-1-ene-8-sulfonyl]-ethyl}-phenyl)-1-methyl-urea]
